According to patent US20250145633A1, “SUBSTITUTED FURANOPYRIMIDINE COMPOUNDS AS PDE1 INHIBITORS” (Dart NeuroScience, LLC, priority 2017, published 2025):

The compounds below were run against human PDE1B enzyme (Homo sapiens (Human), UniProt Q01064) (assay: IMAP TR-FRET PDE1B enzymatic assay). Conditions: negative log of half-maximal molar inhibitory concentration; 200 nM FAM-cAMP; values given as bins.
Type: biochemical
Procedure, shortened: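 Full-length GST-tagged human PDE1B (250 pg/well) in IMAP BSA buffer with 10 U/ml calmodulin and 2.5 mM CaCl2; compound pre-incubated 5 min at room temperature, then 200 nM (final) FAM-cAMP for 30 min. IMAP binding reagent/Tb added, 1 h; TR-FRET 520/490 ratio read. IC50 from sigmoidal dose-response fit.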
With `Cc1oc2ncnc(NC3(C)CC3)c2c1C(=O)NC1(c2ccc(F)cc2)CC1` [Example 69, N-[1-(4-Fluorophenyl)cyclopropyl]-6-methyl-4-[(1-methylcyclopropyl)amino]furo[2,3-d]pyrimidine-5-carboxamide] the “PDE1b (pIC50)” value was >8. `COc1cccc(C2CCN(C(=O)c3c(C)oc4ncnc(NC5(C)CC5)c34)C2)n1` (stereo not shown) [Example 367, 5-[3-(6-Methoxypyridin-2-yl)pyrrolidine-1-carbonyl]-6-methyl-N-(1-methylcyclopropyl)furo[2,3-d]pyrimidin-4-amine] was tested, and the “PDE1b (pIC50)” value was >8. In the case of `Cc1oc2ncnc(NC3(C)CC3)c2c1C(=O)N1CCN(c2ccc(F)cc2)CC1` [Example 61, 5-[4-(4-Fluorophenyl)piperazine-1-carbonyl]-6-methyl-N-(1-methylcyclopropyl)furo[2,3-d]pyrimidin-4-amine], the “PDE1b (pIC50)” value is reported as >8.

Same assay, conditions: negative log of half-maximal molar inhibitory concentration; 200 nM FAM-cAMP; values given as bins; read-out: PDE1b (pIC50) (converted)
For `C=C(C)c1ncnc2c1CCN(C(=O)c1c(C)oc3ncnc(NC4(C)CC4)c13)C2` [Example 804, 6-Methyl-N-(1-methylcyclopropyl)-5-[4-(prop-1-en-2-yl)-5H,6H,7H,8H-pyrido[3,4-d]pyrimidine-7-carbonyl]furo[2,3-d]pyrimidin-4-amine], the IC50 was 10 to 100 nM. `COc1cc2c(cn1)CN(C(=O)c1c(C)oc3ncnc(NC4(C)CC4)c13)CC2` [Example 634, 5-(6-Methoxy-1,2,3,4-tetrahydro-2,7-naphthyridine-2-carbonyl)-6-methyl-N-(1-methylcyclopropyl)furo[2,3-d]pyrimidin-4-amine] was tested, and the IC50 was 10 to 100 nM. `Cc1oc2ncnc(NC3(C)CC3)c2c1C(=O)N1CCc2c(ncnc2C(C)C)C1` [Example 628, 6-Methyl-N-(1-methylcyclopropyl)-5-[4-(propan-2-yl)-5H,6H,7H,8H-pyrido[3,4-d]pyrimidine-7-carbonyl]furo[2,3-d]pyrimidin-4-amine] showed an IC50 of 10 to 100 nM. `COc1ccccc1C(C)NC(=O)c1c(C)oc2ncnc(NC3(C)CC3)c12` (stereo not shown) [Example 613, N-[1-(2-Methoxyphenyl)ethyl]-6-methyl-4-[(1-methylcyclopropyl)amino]furo[2,3-d]pyrimidine-5-carboxamide] gave an IC50 of 10 to 100 nM. In the case of `Cc1cc2c(cn1)CCN(C(=O)c1c(C)oc3ncnc(NC4(C)CC4)c13)C2` [Example 283, 6-Methyl-5-(7-methyl-1,2,3,4-tetrahydro-2,6-naphthyridine-2-carbonyl)-N-(1-methylcyclopropyl)furo[2,3-d]pyrimidin-4-amine], the IC50 is reported as 10 to 100 nM. `Cc1oc2ncnc(NC3(C)CC3)c2c1C(=O)N(C)Cc1cc(C2CC2)[nH]n1` [Example 265, N-[(5-Cyclopropyl-1H-pyrazol-3-yl)methyl]-N,6-dimethyl-4-[(1-methylcyclopropyl)amino]furo[2,3-d]pyrimidine-5-carboxamide] showed an IC50 of 10 to 100 nM. In the case of `Cc1oc2ncnc(NC3(C)CC3)c2c1C(=O)Nc1ccc(N2CCOCC2)cc1` [Example 655, 6-Methyl-4-[(1-methylcyclopropyl)amino]-N-[4-(morpholin-4-yl)phenyl]furo[2,3-d]pyrimidine-5-carboxamide], the IC50 is reported as 10 to 100 nM. `Cc1oc2ncnc(NC3(C)CC3)c2c1C(=O)NC1CCN(c2ccccn2)C1` (stereo not shown) [Example 669, 6-Methyl-4-[(1-methylcyclopropyl)amino]-N-[1-(pyridin-2-yl)pyrrolidin-3-yl]furo[2,3-d]pyrimidine-5-carboxamide] was tested, and the IC50 was 10 to 100 nM. `Cc1oc2ncnc(NC3(C)CC3)c2c1C(=O)Nc1cnn(CCN2CCOCC2)c1` [Example 421, 6-Methyl-4-[(1-methylcyclopropyl)amino]-N-{1-[2-(morpholin-4-yl)ethyl]-1H-pyrazol-4-yl}furo[2,3-d]pyrimidine-5-carboxamide] showed an IC50 of 10 to 100 nM. For `Cc1oc2ncnc(NC3(C)CC3)c2c1C(=O)NC1CCC1` [Example 212, N-Cyclobutyl-6-methyl-4-[(1-methylcyclopropyl)amino]furo[2,3-d]pyrimidine-5-carboxamide], the IC50 was 10 to 100 nM. With `Cc1nc(CNC(=O)c2c(C)oc3ncnc(NC4(C)CC4)c23)no1` [Example 461, 6-Methyl-N-[(5-methyl-1,2,4-oxadiazol-3-yl)methyl]-4-[(1-methylcyclopropyl)amino]furo[2,3-d]pyrimidine-5-carboxamide] the IC50 was 10 to 100 nM. `Cc1oc2ncnc(NC3(C)CC3)c2c1C(=O)N1CCn2c(C)nc(C3CCOCC3)c2C1` [Example 639, 6-Methyl-5-[3-methyl-1-(oxan-4-yl)-5H,6H,7H,8H-imidazo[1,5-a]pyrazine-7-carbonyl]-N-(1-methylcyclopropyl)furo[2,3-d]pyrimidin-4-amine] gave an IC50 of 100 to 1000 nM. Work on `COc1ccc(C(C)N(C)C(=O)c2c(C)oc3ncnc(NC4(C)CC4)c23)cc1F` (stereo not shown) [Example 510, N-[1-(3-Fluoro-4-methoxyphenyl)ethyl]-N,6-dimethyl-4-[(1-methylcyclopropyl)amino]furo[2,3-d]pyrimidine-5-carboxamide] yielded an IC50 of 10 to 100 nM. In the case of `Cc1cnc(C2CCN(C(=O)c3c(C)oc4ncnc(NC5(C)CC5)c34)CC2)cn1` [Example 393, 6-Methyl-N-(1-methylcyclopropyl)-5-[4-(5-methylpyrazin-2-yl)piperidine-1-carbonyl]furo[2,3-d]pyrimidin-4-amine], the IC50 is reported as 10 to 100 nM. Compound `Cc1oc2ncnc(NC3(C)CC3)c2c1C(=O)N1CCN(c2ccc(F)cc2S(C)(=O)=O)CC1` [Example 521] has an IC50 of 10 to 100 nM. In the case of `COc1c(C)cnc(CN(C)C(=O)c2c(C)oc3ncnc(NC4(C)CC4)c23)c1C` [Example 498, N-[(4-Methoxy-3,5-dimethylpyridin-2-yl)methyl]-N,6-dimethyl-4-[(1-methylcyclopropyl)amino]furo[2,3-d]pyrimidine-5-carboxamide], the IC50 is reported as 10 to 100 nM. `COc1ccc(N2CCCN(C(=O)c3c(C)oc4ncnc(NC5(C)CC5)c34)CC2)cc1` [Example 159, 5-[4-(4-Methoxyphenyl)-1,4-diazepane-1-carbonyl]-6-methyl-N-(1-methylcyclopropyl)furo[2,3-d]pyrimidin-4-amine] showed an IC50 of 100 to 1000 nM. In the case of `COc1cc(F)ccc1CNC(=O)c1c(C)oc2ncnc(NC3(C)CC3)c12` [Example 525, N-[(4-Fluoro-2-methoxyphenyl)methyl]-6-methyl-4-[(1-methylcyclopropyl)amino]furo[2,3-d]pyrimidine-5-carboxamide], the IC50 is reported as 10 to 100 nM. In the case of `Cc1oc2ncnc(NC3(C)CC3)c2c1C(=O)NCc1ccc(F)nc1` [Example 293, N-[(6-Fluoropyridin-3-yl)methyl]-6-methyl-4-[(1-methylcyclopropyl)amino]furo[2,3-d]pyrimidine-5-carboxamide], the IC50 is reported as 10 to 100 nM. With `Cc1cn(C)nc1NC(=O)c1c(C)oc2ncnc(NC3(C)CC3)c12` [Example 432, N-(1,4-Dimethyl-1H-pyrazol-3-yl)-6-methyl-4-[(1-methylcyclopropyl)amino]furo[2,3-d]pyrimidine-5-carboxamide] the IC50 was 10 to 100 nM. For `Cc1oc2ncnc(NC3(C)CC3)c2c1C(=O)N1CCn2c(C(F)(F)F)nc(C3CCOCC3)c2C1` [Example 638, 6-Methyl-N-(1-methylcyclopropyl)-5-[1-(oxan-4-yl)-3-(trifluoromethyl)-5H,6H,7H,8H-imidazo[1,5-a]pyrazine-7-carbonyl]furo[2,3-d]pyrimidin-4-amine], the IC50 was 100 to 1000 nM. `Cc1oc2ncnc(NC3(C)CC3)c2c1C(=O)N1CCc2cccc(O)c2C1` [Example 331, 2-{6-Methyl-4-[(1-methylcyclopropyl)amino]furo[2,3-d]pyrimidine-5-carbonyl}-1,2,3,4-tetrahydroisoquinolin-8-ol] gave an IC50 of 10 to 100 nM. Compound `Cc1oc2ncnc(NC3(C)CC3)c2c1C(=O)N1CCN(c2ccc(F)nc2)CC1` [Example 282, 5-[4-(6-Fluoropyridin-3-yl)piperazine-1-carbonyl]-6-methyl-N-(1-methylcyclopropyl)furo[2,3-d]pyrimidin-4-amine] has an IC50 of 10 to 100 nM. For `COCCN(Cc1cccc(OC)c1)C(=O)c1c(C)oc2ncnc(NC3(C)CC3)c12` [Example 580, N-(2-Methoxyethyl)-N-[(3-methoxyphenyl)methyl]-6-methyl-4-[(1-methylcyclopropyl)amino]furo[2,3-d]pyrimidine-5-carboxamide], the IC50 was 10 to 100 nM. `Cc1oc2ncnc(NC3(C)CC3)c2c1C(=O)N1CCc2cccnc2C1` [Example 630, 6-Methyl-N-(1-methylcyclopropyl)-5-(5,6,7,8-tetrahydro-1,7-naphthyridine-7-carbonyl)furo[2,3-d]pyrimidin-4-amine] showed an IC50 of 10 to 100 nM. With `Cc1oc2ncnc(NC3(C)CC3)c2c1C(=O)N1CCN(c2ccnc(F)c2)CC1` [Example 160, 5-[4-(2-fluoropyridin-4-yl)piperazine-1-carbonyl]-6-methyl-N-(1-methylcyclopropyl)furo[2,3-d]pyrimidin-4-amine] the IC50 was 10 to 100 nM. `Cc1oc2ncnc(NC3(C)CC3)c2c1C(=O)NCCc1cccc(Cl)c1` [Example 204, N-[2-(3-Chlorophenyl)ethyl]-6-methyl-4-[(1-methylcyclopropyl)amino]furo[2,3-d]pyrimidine-5-carboxamide] was tested, and the IC50 was 10 to 100 nM. In the case of `Cc1oc2ncnc(NC3(C)CC3)c2c1C(=O)N1CCc2c(ncnc2N2CC(F)C2)C1` [Example 788, 5-[4-(3-Fluoroazetidin-1-yl)-5H,6H,7H,8H-pyrido[3,4-d]pyrimidine-7-carbonyl]-6-methyl-N-(1-methylcyclopropyl)furo[2,3-d]pyrimidin-4-amine], the IC50 is reported as 10 to 100 nM. `Cc1oc2ncnc(NC3(C)CC3)c2c1C(=O)Nc1nccs1` [Example 143, 6-Methyl-4-[(1-methylcyclopropyl)amino]-N-(1,3-thiazol-2-yl)furo[2,3-d]pyrimidine-5-carboxamide] gave an IC50 of 10 to 100 nM. In the case of `Cc1oc2ncnc(NC3(C)CC3)c2c1C(=O)NCC(C)C` [Example 137, 6-Methyl-4-[(1-methylcyclopropyl)amino]-N-(2-methylpropyl)furo[2,3-d]pyrimidine-5-carboxamide], the IC50 is reported as 10 to 100 nM. In the case of `Cc1oc2ncnc(NC3(C)CC3)c2c1C(=O)NC1CCN(c2ccccn2)CC1` [Example 650, 6-Methyl-4-[(1-methylcyclopropyl)amino]-N-[1-(pyridin-2-yl)piperidin-4-yl]furo[2,3-d]pyrimidine-5-carboxamide], the IC50 is reported as 10 to 100 nM.
